Test results: paper doi:10.1101/2023.11.24.568596v1 (biorxiv, 2023)

Experiments:
Conditions in all cases: binder
[1] = molecular target: T1, MST2 (Homo sapiens, UniProt Q13188)
T1 sequence (Q13188 1-491): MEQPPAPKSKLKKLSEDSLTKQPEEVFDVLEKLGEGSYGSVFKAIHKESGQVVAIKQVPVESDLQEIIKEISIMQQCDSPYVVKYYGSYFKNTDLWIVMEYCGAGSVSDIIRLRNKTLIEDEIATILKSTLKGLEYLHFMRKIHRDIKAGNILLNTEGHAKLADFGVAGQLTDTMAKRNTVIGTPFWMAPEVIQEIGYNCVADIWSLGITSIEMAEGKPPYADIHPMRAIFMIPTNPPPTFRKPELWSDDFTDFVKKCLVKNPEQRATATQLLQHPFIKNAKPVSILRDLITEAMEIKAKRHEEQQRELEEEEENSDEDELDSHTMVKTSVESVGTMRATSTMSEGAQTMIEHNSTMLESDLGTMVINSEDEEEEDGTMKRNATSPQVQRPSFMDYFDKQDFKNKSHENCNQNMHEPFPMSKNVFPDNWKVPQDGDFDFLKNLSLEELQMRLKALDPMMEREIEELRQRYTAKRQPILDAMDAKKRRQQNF

[2] = molecular target: T2, MST1 (Homo sapiens, UniProt Q13043)
T2 sequence (Q13043 1-487): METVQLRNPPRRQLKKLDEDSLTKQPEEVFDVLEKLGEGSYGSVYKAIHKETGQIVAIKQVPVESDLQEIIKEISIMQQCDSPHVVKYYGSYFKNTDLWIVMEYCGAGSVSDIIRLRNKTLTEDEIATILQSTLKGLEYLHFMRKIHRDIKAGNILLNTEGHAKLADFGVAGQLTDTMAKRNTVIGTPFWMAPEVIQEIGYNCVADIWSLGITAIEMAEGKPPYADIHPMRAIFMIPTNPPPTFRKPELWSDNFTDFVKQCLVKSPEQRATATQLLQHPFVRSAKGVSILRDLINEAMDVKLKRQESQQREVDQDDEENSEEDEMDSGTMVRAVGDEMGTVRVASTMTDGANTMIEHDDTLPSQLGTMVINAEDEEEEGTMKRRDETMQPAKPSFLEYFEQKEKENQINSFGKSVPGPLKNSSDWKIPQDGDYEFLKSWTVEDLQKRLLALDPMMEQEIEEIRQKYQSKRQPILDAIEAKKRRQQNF

[3] = molecular target: MST4 (Homo sapiens, UniProt Q9P289)
[4] = molecular target: MST3 (Homo sapiens, UniProt Q9Y6E0)
[5] = molecular target: PAK1 (Homo sapiens, UniProt Q13153)
PAK1, sequence (Q13153 whole entry): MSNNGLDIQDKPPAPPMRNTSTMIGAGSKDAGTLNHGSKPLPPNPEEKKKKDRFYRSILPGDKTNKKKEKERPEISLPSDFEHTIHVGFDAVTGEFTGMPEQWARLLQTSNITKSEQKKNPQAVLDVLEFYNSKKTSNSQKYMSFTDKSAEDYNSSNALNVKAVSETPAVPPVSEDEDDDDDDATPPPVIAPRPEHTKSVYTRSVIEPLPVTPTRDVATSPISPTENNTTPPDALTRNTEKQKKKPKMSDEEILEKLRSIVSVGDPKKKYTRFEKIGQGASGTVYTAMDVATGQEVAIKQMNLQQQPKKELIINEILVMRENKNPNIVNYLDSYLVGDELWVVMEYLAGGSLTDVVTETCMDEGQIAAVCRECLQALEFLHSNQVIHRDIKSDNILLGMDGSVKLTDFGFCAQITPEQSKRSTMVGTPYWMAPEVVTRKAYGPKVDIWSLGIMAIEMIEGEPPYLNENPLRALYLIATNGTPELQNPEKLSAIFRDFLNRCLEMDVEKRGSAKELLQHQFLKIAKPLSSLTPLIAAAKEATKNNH

[6] = molecular target: T3, TLK1 (Homo sapiens, UniProt Q9UKI8)
T3 sequence (Q9UKI8 1-766): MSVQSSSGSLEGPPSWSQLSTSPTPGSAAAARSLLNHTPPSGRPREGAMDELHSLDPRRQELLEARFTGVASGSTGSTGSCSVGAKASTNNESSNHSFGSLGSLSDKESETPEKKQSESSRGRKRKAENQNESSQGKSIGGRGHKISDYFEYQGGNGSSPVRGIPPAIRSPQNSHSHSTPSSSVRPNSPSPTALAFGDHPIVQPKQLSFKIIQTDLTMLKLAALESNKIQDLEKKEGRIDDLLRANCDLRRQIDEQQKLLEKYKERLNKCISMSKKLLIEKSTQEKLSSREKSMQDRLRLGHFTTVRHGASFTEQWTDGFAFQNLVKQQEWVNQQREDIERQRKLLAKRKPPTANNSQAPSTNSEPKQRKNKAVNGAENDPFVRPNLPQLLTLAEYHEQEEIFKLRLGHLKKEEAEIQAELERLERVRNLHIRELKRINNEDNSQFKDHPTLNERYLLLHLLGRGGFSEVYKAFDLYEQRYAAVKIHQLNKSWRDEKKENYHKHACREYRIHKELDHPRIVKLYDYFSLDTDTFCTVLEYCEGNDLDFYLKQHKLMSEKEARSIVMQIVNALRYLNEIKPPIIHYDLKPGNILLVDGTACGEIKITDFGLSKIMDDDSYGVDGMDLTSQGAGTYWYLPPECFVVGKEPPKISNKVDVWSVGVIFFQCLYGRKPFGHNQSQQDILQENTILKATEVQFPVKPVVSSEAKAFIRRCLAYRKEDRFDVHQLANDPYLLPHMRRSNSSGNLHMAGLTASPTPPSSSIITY

[7] = molecular target: Wnk1 (Homo sapiens, UniProt Q9H4A3)
Wnk1, sequence (Q9H4A3 whole entry): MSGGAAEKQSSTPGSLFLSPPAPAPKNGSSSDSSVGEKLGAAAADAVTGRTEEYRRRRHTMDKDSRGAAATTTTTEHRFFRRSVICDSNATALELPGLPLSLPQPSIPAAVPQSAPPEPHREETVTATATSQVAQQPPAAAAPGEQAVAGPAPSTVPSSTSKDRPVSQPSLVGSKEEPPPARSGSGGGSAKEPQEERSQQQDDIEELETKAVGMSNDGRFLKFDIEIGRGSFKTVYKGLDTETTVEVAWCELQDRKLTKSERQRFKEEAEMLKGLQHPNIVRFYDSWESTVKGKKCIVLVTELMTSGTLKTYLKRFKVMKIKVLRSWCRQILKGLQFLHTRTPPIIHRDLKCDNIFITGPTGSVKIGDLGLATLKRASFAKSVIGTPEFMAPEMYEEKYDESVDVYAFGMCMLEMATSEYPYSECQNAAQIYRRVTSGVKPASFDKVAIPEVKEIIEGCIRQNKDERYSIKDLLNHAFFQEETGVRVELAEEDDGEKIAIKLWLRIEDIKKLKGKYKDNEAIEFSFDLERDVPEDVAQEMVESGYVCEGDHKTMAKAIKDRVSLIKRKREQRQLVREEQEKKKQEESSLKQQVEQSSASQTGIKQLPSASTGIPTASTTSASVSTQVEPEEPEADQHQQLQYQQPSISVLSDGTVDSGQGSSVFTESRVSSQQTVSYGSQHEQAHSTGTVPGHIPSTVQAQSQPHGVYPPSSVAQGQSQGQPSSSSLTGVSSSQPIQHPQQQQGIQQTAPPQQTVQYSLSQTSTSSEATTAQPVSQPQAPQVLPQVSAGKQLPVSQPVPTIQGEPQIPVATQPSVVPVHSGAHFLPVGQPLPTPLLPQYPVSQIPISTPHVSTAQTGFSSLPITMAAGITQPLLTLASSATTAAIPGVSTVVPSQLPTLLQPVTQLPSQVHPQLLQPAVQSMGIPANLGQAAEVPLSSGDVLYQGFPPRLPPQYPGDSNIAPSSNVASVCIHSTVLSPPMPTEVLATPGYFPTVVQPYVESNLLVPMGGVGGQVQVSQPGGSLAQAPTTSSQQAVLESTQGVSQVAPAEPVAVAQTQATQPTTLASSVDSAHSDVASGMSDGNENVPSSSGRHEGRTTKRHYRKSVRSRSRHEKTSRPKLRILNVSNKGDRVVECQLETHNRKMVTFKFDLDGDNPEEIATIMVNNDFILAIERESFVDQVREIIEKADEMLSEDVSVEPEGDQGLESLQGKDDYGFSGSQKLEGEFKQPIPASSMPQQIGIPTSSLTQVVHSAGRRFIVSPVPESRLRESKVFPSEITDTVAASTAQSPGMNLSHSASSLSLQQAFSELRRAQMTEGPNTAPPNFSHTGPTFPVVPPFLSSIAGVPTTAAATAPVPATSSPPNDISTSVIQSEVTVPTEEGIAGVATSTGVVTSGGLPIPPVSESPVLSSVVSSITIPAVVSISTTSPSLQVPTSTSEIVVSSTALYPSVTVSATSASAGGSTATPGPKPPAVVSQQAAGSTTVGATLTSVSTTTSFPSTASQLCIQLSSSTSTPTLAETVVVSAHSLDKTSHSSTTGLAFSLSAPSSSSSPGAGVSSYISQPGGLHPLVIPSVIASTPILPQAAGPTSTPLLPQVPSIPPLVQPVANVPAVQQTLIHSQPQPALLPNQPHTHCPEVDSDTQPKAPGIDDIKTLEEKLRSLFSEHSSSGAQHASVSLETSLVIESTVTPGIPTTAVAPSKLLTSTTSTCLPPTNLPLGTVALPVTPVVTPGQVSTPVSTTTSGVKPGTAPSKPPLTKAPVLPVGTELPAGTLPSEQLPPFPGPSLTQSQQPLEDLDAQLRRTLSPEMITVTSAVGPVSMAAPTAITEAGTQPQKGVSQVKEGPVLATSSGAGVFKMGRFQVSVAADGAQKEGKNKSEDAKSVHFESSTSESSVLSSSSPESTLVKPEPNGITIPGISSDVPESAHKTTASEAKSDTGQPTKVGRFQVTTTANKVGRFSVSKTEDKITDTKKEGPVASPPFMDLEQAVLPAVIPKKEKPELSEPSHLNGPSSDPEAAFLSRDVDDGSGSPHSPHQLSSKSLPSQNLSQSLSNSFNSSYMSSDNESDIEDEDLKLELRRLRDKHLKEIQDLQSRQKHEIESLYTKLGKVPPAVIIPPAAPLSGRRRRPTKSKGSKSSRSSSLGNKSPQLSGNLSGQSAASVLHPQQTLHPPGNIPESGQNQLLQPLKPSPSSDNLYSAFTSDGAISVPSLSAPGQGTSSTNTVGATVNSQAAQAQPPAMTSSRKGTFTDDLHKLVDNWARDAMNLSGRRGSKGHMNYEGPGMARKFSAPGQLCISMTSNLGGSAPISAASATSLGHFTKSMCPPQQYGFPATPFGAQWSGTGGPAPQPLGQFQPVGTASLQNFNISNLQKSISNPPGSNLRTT

[8] = molecular target: T4, ULK3 (Homo sapiens, UniProt Q6PHR2)
T4 sequence (Q6PHR2 1-472): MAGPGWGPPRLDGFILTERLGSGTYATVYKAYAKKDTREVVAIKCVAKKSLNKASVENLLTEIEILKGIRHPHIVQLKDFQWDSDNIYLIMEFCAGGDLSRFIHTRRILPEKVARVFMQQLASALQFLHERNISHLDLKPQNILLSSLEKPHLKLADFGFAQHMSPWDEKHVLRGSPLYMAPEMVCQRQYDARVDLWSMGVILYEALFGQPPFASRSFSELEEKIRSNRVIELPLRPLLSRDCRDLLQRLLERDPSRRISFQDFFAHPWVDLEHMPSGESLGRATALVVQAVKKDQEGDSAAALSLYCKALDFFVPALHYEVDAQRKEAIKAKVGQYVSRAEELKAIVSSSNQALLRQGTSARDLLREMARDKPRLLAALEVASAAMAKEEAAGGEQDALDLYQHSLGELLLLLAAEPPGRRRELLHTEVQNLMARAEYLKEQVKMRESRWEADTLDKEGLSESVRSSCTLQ

[9] = molecular target: TAF1 (Homo sapiens, UniProt P21675)
TAF1, sequence (P21675 whole entry): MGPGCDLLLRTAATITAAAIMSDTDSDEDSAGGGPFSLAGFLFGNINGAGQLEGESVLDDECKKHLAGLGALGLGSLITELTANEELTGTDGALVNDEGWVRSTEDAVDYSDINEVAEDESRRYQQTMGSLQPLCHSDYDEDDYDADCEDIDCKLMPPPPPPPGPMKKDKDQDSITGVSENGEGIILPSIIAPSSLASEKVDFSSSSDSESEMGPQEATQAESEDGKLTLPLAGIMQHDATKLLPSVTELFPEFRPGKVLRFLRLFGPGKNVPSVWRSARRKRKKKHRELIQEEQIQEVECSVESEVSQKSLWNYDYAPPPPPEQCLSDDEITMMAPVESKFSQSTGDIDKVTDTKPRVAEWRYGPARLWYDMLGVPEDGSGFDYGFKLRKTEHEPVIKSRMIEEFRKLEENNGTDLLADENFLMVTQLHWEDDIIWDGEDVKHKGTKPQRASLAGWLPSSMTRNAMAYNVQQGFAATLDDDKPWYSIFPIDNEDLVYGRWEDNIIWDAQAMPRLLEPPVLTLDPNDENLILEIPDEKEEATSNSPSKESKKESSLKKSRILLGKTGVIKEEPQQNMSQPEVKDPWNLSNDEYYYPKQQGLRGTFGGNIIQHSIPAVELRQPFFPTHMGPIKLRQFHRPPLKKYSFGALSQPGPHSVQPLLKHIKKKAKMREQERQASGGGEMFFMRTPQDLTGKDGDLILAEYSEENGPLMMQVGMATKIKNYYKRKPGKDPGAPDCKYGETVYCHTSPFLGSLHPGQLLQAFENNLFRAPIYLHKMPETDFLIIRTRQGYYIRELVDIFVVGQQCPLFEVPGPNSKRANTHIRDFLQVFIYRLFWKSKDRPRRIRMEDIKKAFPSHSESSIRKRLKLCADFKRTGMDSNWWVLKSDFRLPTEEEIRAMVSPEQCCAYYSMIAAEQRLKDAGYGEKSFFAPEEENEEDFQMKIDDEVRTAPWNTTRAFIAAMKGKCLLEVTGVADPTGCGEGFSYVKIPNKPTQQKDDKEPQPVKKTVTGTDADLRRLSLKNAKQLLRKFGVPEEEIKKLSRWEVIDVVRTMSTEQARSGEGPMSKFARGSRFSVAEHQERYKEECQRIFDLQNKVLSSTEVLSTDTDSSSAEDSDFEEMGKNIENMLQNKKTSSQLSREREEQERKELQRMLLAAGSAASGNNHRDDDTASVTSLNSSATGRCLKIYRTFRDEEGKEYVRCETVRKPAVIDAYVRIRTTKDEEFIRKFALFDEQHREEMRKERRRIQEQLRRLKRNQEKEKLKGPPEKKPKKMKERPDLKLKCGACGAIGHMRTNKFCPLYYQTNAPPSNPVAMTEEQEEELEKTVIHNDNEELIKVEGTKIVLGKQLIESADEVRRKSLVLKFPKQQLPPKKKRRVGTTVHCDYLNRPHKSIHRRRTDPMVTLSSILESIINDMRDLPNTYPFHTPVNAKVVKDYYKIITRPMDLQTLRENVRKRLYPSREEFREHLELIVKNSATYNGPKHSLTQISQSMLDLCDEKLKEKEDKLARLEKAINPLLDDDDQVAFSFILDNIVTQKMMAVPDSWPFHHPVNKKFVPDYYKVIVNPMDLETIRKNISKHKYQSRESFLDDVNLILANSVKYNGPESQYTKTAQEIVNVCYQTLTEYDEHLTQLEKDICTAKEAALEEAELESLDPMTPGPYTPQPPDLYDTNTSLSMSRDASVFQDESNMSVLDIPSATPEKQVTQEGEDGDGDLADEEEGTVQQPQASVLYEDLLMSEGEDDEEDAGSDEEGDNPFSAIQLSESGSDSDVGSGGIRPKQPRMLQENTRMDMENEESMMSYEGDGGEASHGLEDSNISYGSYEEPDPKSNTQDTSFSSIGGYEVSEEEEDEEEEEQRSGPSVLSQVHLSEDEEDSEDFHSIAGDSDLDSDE

[10] = molecular target: STLK3 (Homo sapiens, UniProt Q9UEW8)

SMILES | dTm MST2 [1] [°C] | dTm MST1 [2] [°C] | dTm MST4 [3] [°C] | dTm MST3 [4] [°C] | dTm PAK1 [5] [°C] | also measured
Cc1cccc(-c2ccc(-c3cc4cnc(NCCCN5CCCC5=O)nc4n(CCCCN)c3=O)c(Cl)c2)n1 [compound 27, MR30] | 2.2 | 1.1 | 7.5 | 10.6 | 3.6 | ΔTm MR30 (27) [6]: -2.0 °C; ΔTm MR30 (27) [7]: 0.8 °C; ΔTm MR30 (27) [8]: 7.3 °C; ΔTm MR30 (27) [9]: 0.0 °C; ΔTm MR30 (27) [10]: 10.0 °C
Cc1cccc(-c2ccc(-c3cc4cnc(NCCCN5CCOCC5)nc4n(CCCCN)c3=O)c(Cl)c2)n1 [compound 26, MR26] | 5.9 | 3.6 | 10.6 | 11.6 | 4.1 | ΔTm MR26 (26) [6]: -1.6 °C; ΔTm MR26 (26) [7]: 1.0 °C; ΔTm MR26 (26) [8]: 6.7 °C; ΔTm MR26 (26) [9]: 0.0 °C; ΔTm MR26 (26) [10]: 10.4 °C
Cc1cccc(-c2ccc(-c3cc4cnc(NCCCN5CCNCC5)nc4n(CCCCN)c3=O)c(Cl)c2)n1 [compound 29, 8-(4-Aminobutyl)-6-(2-chloro-4-(6-methylpyridin-2-yl)phenyl)-2-((3-(piperazin-1-yl)propyl)amino)pyrido[2,3-d]pyrimidin-7(8H)-one] | 5.2 | 3.1 | 8.9 | 13.0 | 5.0 | ΔTm 29 [6]: -1.5 °C; ΔTm 29 [7]: 0.6 °C; ΔTm 29 [8]: 5.8 °C; ΔTm 29 [9]: 0.2 °C; ΔTm 29 [10]: 8.8 °C

Second part, led by results:

dTm MST2 [1] [°C] | dTm MST1 [2] [°C] | dTm MST4 [3] [°C] | dTm MST3 [4] [°C] | dTm PAK1 [5] [°C] | SMILES | also measured
10.2 | 5.8 | 9.5 | 13.0 | 5.9 | Cc1cccc(-c2ccc(-c3cc4cnc(Nc5cc(C(F)(F)F)ccc5C)nc4n(CCCCN)c3=O)c(Cl)c2)n1 [compound 28, 8-(4-Aminobutyl)-6-(2-chloro-4-(6-methylpyridin-2-yl)phenyl)-2-((2-methyl-5-(trifluoromethyl)phenyl)amino)pyrido[2,3-d]pyrimidin-7(8H)-one] | ΔTm 28 [6]: -1.8 °C; ΔTm 28 [7]: 2.8 °C; ΔTm 28 [8]: 6.5 °C; ΔTm 28 [9]: 0.4 °C; ΔTm 28 [10]: 10.4 °C
15.8 | 8.7 | 15.3 | 16.7 | 9.1 | Cc1cccc(-c2ccc(-c3cc4cnc(Nc5ccc(CCCO)cc5)nc4n(CCCCN)c3=O)c(Cl)c2)n1 [compound 30, 8-(4-Aminobutyl)-6-(2-chloro-4-(6-methylpyridin-2-yl)phenyl)-2-((4-(3-hydroxypropyl)phenyl)amino)pyrido[2,3-d]pyrimidin-7(8H)-one] | ΔTm 30 [6]: -0.9 °C; ΔTm 30 [7]: 4.8 °C; ΔTm 30 [8]: 14.9 °C; ΔTm 30 [9]: -0.5 °C; ΔTm 30 [10]: 16.6 °C
